These results are taken from ChEMBL document CHEMBL4118135, “Optimized allosteric inhibition of engineered protein tyrosine phosphatases with an expanded palette of biarsenical small molecules” (Bioorg Med Chem, 2018).

In assay [1] the target is Tyrosine-protein phosphatase non-receptor type 6 (Homo sapiens) (UniProt P29350). In words: Inhibition of allosterically sensitized mutant form of His6-tagged human SHP1 catalytic domain at 500 nM using pNPP as substrate incubated for 90 mins by quenched phosphatase activity assay.
Chain of Tyrosine-protein phosphatase non-receptor type 6 (Homo sapiens) (P29350 whole entry, the tested form may be a part): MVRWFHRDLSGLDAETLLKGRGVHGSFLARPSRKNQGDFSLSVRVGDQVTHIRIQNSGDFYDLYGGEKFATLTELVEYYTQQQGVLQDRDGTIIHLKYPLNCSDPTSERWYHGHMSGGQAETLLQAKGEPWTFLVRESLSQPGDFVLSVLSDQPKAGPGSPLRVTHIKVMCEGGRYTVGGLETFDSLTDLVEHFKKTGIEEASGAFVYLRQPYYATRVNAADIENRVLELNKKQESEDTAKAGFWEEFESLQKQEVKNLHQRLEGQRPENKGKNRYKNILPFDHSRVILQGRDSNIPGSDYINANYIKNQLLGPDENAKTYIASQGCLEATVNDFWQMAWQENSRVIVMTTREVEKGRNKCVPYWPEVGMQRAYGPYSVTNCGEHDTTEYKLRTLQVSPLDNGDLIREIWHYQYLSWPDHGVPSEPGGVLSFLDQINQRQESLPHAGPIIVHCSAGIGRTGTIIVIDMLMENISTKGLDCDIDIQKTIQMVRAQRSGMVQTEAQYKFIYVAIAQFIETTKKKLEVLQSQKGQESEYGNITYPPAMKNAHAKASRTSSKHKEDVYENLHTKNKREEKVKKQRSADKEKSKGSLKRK
Assay [2] concerns T1, Tyrosine-protein phosphatase non-receptor type 1 (Homo sapiens), P18031 [P87C,A122C].
T1 sequence (whole entry): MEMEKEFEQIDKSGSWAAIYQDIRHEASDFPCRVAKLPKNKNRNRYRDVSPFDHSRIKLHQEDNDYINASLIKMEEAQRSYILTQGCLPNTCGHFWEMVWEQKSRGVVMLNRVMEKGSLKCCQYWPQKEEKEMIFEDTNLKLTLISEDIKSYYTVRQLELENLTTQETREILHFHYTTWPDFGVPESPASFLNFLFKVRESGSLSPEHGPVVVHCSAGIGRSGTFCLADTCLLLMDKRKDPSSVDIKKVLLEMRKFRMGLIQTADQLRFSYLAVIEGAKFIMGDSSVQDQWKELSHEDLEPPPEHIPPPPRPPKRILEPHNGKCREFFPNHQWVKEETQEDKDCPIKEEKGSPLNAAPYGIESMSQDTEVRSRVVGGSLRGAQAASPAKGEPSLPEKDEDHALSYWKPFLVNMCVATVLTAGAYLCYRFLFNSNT
In words: Inhibition of allosterically sensitized His6-tagged human PTP1B catalytic domain P87C/A122C mutant at 250 nM using pNPP as substrate incubated for 90 mins by quenched phosphatase activity assay.

The species entered for assay [3] is Homo sapiens. In words: Inhibition of His6-tagged human wild-type PTP catalytic domain at 500 nM using pNPP as substrate incubated for 90 mins by quenched phosphatase activity assay.
The test system of assay [4] is T2, Tyrosine-protein phosphatase non-receptor type 7 (Homo sapiens), P35236 [P171C,V205C].
T2 sequence (whole entry): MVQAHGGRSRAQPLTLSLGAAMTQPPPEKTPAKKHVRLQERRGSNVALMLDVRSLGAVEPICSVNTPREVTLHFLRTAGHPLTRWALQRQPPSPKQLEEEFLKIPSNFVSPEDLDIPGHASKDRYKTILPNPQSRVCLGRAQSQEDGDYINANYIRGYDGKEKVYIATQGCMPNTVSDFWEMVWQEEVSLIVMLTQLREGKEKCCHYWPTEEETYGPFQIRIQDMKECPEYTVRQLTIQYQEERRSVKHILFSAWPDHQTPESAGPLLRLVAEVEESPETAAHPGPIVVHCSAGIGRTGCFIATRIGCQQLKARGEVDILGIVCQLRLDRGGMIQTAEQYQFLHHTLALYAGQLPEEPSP
Briefly: Inhibition of allosterically sensitized mutant form of His6-tagged human HePTP catalytic domain at 500 nM using pNPP as substrate incubated for 90 mins by quenched phosphatase activity assay.

Assay [5] has as its target T3, Tyrosine-protein phosphatase non-receptor type 1 (Homo sapiens) (UniProt P18031).
T3 sequence (whole entry): T1 sequence (whole entry) with C87P, C122A
In words: Inhibition of His6-tagged human wild-type PTP1B catalytic domain at 500 nM using DADEpYLIPQQG as substrate incubated for 90 mins by continuous phosphatase activity assay.

Assay [6] concerns the target Tyrosine-protein phosphatase non-receptor type 13 (Homo sapiens) (UniProt Q12923). In words: Inhibition of allosterically sensitized mutant form of His6-tagged human FAP1 catalytic domain at 500 nM using pNPP as substrate incubated for 90 mins by quenched phosphatase activity assay.
In assay [7] the target is T4, Tyrosine-protein phosphatase non-receptor type 11 (Homo sapiens) (UniProt Q06124).
T4 sequence (whole entry): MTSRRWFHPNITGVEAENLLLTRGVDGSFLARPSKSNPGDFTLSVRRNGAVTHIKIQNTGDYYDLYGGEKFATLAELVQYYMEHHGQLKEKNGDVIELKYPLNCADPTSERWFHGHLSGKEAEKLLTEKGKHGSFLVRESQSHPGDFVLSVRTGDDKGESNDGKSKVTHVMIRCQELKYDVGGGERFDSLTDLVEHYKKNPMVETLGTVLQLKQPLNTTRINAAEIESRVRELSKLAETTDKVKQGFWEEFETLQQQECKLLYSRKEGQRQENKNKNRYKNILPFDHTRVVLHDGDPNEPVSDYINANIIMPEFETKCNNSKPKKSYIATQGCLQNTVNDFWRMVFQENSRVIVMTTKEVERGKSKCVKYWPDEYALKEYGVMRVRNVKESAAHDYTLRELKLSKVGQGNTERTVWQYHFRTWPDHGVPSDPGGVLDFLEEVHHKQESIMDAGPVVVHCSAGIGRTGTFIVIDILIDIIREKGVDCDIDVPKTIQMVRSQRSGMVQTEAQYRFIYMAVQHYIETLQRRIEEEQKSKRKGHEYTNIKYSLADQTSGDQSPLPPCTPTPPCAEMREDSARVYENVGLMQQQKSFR
In words: Inhibition of allosterically sensitized mutant form of His6-tagged human SHP2 catalytic domain at 500 nM at 500 nM using pNPP as substrate incubated for 90 mins by quenched phosphatase activity assay.

In assay [8] the target is T4, Tyrosine-protein phosphatase non-receptor type 11 (Homo sapiens). In words: Inhibition of allosterically sensitized mutant form of His6-tagged human SHP2 containing SHP1 and […] SH2 domain at 500 nM at 500 nM using pNPP as substrate incubated for 90 mins by quenched phosphatase activity assay.
For assay [9], the target named is Tyrosine-protein phosphatase non-receptor type 13 (Homo sapiens) (UniProt Q12923). Briefly: Inhibition of allosterically sensitized mutant form of His6-tagged human FAP1 catalytic domain using pNPP as substrate after 90 mins by quenched phosphatase activity assay.
Chain of Tyrosine-protein phosphatase non-receptor type 13 (Homo sapiens) (Q12923 whole entry, the tested form may be a part): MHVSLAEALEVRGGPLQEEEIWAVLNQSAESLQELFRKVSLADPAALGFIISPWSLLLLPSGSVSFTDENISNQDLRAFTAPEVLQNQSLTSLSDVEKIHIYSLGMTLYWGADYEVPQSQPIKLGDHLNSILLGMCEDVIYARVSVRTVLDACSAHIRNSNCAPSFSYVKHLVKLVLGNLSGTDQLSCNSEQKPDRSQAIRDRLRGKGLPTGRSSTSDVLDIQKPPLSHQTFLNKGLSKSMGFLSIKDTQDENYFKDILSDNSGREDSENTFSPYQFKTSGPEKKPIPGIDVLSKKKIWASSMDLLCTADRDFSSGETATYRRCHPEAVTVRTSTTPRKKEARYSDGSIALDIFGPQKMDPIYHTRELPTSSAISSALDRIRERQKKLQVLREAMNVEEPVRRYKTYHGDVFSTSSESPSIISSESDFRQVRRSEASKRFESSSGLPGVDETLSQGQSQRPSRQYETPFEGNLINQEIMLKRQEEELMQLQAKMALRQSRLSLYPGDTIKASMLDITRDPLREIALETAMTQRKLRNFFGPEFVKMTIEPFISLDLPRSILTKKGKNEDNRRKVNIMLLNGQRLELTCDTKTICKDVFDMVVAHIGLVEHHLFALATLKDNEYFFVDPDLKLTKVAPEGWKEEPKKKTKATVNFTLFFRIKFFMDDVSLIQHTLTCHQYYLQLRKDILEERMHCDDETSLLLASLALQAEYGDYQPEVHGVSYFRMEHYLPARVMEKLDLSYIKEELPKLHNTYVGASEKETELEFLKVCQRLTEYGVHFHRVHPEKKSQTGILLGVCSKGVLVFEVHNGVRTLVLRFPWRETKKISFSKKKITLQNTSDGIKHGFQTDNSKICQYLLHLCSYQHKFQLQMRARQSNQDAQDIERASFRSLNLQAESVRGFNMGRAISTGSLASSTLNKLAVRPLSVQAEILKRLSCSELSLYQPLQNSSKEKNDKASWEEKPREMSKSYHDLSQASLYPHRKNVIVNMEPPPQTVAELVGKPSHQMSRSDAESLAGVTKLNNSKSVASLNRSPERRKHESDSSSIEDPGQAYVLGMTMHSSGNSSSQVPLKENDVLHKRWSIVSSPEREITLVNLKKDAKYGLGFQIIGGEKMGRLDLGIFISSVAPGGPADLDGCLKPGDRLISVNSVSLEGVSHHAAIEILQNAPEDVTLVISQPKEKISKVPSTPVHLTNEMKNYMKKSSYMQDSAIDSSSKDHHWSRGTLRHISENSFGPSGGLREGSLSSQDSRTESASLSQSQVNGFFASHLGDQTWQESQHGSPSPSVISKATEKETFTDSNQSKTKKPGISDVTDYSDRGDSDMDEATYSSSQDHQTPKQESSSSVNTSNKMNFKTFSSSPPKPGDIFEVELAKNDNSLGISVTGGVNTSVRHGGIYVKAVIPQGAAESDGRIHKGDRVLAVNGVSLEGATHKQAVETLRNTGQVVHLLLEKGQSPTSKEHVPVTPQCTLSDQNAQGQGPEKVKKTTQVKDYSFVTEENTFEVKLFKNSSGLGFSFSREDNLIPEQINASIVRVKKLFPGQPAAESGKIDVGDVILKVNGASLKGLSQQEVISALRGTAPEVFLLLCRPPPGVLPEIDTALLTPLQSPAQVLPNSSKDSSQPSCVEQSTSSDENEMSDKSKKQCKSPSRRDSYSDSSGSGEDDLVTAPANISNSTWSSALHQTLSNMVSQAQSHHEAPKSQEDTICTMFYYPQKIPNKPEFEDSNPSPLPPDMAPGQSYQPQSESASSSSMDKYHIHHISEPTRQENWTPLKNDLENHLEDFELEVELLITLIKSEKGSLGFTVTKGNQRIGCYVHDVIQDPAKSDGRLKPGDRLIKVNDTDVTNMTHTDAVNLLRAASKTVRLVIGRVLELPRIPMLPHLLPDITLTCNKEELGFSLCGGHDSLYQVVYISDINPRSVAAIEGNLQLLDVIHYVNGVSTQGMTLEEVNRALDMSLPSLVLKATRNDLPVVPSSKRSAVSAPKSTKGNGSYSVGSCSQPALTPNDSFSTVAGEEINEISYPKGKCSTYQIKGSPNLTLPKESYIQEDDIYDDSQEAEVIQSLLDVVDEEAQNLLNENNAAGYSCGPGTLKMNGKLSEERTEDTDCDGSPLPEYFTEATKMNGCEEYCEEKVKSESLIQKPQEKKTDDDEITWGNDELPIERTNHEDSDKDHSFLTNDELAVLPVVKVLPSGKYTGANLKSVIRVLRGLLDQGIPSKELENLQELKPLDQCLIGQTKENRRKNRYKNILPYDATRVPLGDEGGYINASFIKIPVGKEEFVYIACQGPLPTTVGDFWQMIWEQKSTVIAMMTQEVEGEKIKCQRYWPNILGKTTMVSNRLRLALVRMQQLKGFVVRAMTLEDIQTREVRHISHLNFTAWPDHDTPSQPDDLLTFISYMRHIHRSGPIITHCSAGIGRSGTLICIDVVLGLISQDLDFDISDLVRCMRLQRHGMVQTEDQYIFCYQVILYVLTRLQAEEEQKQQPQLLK
Assay [10] has as its target Tyrosine-protein phosphatase non-receptor type 7 (Homo sapiens, UniProt P35236, P171C/V205C). Briefly: Inhibition of allosterically sensitized mutant form of His6-tagged human HePTP catalytic domain overexpressed in Escherichia coli crude cell lysate using pNPP as substrate incubated for 90 mins by quenched phosphatase activity assay.
Assay [11] deals with T2, Tyrosine-protein phosphatase non-receptor type 7 (Homo sapiens), P35236 [P171C,V205C]. In words: Inhibition of allosterically sensitized mutant form of His6-tagged human HePTP catalytic domain using pNPP as substrate incubated for 90 mins by quenched phosphatase activity assay.

Substitutions are numbered along the chain they refer to. The source made the active and inactive calls. The calls are words filed in the database; no cut-off is given here.

What is called inhibition is the percentage by which the read-out fell short of the control. For `CC1(C)C(/C=C/C=C2/N(CCCCS(=O)(=O)O)c3ccc([As]4SCCS4)cc3C2(C)C)=[N+](CCCCS(=O)(=O)O)c2ccc([As]3SCCS3)cc21`, the inhibition result in assay [1], in assay [3] and in assay [6] was “Active” each time. Also, in assay [2], the inhibition stood at 70%. Moreover, the inhibition entry in [4], in assay [5], in [7] and in assay [8] was “inactive” throughout.

For orientation: IC50 means the concentration needed to halve the response being measured. In the case of `O=C(O)c1ccccc1-c1c2ccc(=O)c([As]3SCCS3)c-2oc2c([As]3SCCS3)c(O)ccc12`, the inhibition entry in assay [9] and in assay [11] was “Dose-dependent effect” in each case. The inhibition result in assay [1], in [2], in assay [3], in assay [4], in assay [6] and in [7] was “Active” throughout. Also, the inhibition entry in [8] was “Active”. Also, the IC50 in [10] came to 0.25 µM.
